Test results from article PMC12635268, “Novel antimicrobial peptides and peptide-microbiome crosstalk in Appalachian salamander skin” (NPJ Biofilms and Microbiomes, 2025).
Like-named read-outs stand apart in the source and are kept apart here. Ends that are not written are not given here. Peptide text beside a SMILES is read from it.

Legend:
[1] = parameters: method as in Biomatik (vendor); conditions: 1.0 mg peptide in 1.0 ml solvent; peptides synthesized by Biomatik; ref Biomatik (vendor); cited from earlier work
A. baumannii 5075 = conditions: Week 1 (12/6/2023)
P. aeruginosa PA01 (Si) = experiment: microbe, parasite or virus in culture; type: cell-based
Text: Supplement 41522_2025_837_MOESM13_ESM.xlsx, sheet "Table_S13_ESKAPEE-MIC" | column: Bacterial MIC (µg/mL)

A. baumannii ATCC 19606 = experiment: microbe, parasite or virus in culture
Protocol: (§1) Antimicrobial susceptibility testing of the 20 synthesized peptides against 17 bacterial strains of clinical relevance in the ESKAPEE panel was conducted using minimum inhibitory concentration (MIC) assays following the broth microdilution method outlined by Parker et al.[91]. The ESKAPEE panel is comprised of fourteen American Type Culture Collection (ATCC) strains and three Multidrug Resistant Organism Repository and Surveillance Network (MRSN) bacterial strains. These strains represent at least one drug-susceptible strain and one drug-resistant strain for each bacterium to assess drug efficacy across various resistance mechanisms. This panel is comprised of the following bacterial species and strains: E. faecium (ATCC 19434, ATCC 49224), S. aureus (ATCC 25923, ATCC 43300), K. pneumoniae (ATCC 700603, ATCC 13883, MRSN 1320), A. baumannii (ATCC 17978, ATCC 19606, MRSN 959), P. aeruginosa (ATCC 15692, ATCC 27853, MRSN 5519), E. cloacae (ATCC 13047, ATCC 35549), and E. coli (ATCC 35218, ATCC 43888). Bacteria were grown in cation-adjusted Mueller-Hinton broth (CAMHB) to achieve a final inoculum of 1 × 10⁵ CFU/mL. CAMHB is selected for its batch-to-batch reproducibility, low levels of antimicrobial inhibitors, and ability to support the growth of most bacterial pathogens.
(§2) Briefly, lyophilized peptides were dissolved in 0.2% TFA + 0.4% BSA in water to 2.56 mg/mL, ultrasonicated for 20 min, diluted 10-fold into CAMHB, and then serially diluted 2-fold in 0.02% TFA + 0.04% BSA in CAMHB and assayed at a concentration of 0.25 to 128 μg/mL. Assays were set up using the Tecan Freedom EVO liquid handling robot and software (Tecan, Switzerland) with 50 μL of bacterial inoculum and 50 μL of peptide transferred into round-bottom 96-well microtiter plates. Each plate assay was performed in duplicate and incubated at 37 °C for 20 h without agitation. Bacterial growth was assessed using the BIOMIC V3 Image Analysis system (Giles Scientific, USA) and the MIC values were determined visually according to the Clinical and Laboratory Standards Institute (CLSI) guidelines.

S. aureus ATCC 43300 = experiment: microbe, parasite or virus in culture; conditions: S. aureus 43300; Week 1 (12/6/2023)
Protocol: as §1, §2

[2] = system: K. pneumoniae ATCC 700603; experiment: microbe, parasite or virus in culture; conditions: K. pneumoniae 700603; Week 1 (12/6/2023)
Protocol: as §1, §2

A. baumannii ATCC 17978 = experiment: microbe, parasite or virus in culture
Protocol: as §1, §2

E. cloacae ATCC 35549 = experiment: microbe, parasite or virus in culture
Protocol: as §1, §2

E. coli ATCC 35218 = experiment: microbe, parasite or virus in culture; conditions: E. coli 35218; Week 1 (12/6/2023)
Protocol: as §1, §2

P. aeruginosa MRSN 5519 = experiment: microbe, parasite or virus in culture
Protocol: as §1, §2

S. aureus ATCC 25923 = experiment: microbe, parasite or virus in culture
Protocol: as §1, §2

E. coli ATCC 43888 = experiment: microbe, parasite or virus in culture
Protocol: as §1, §2

E. faecium ATCC 19434 = experiment: microbe, parasite or virus in culture
Protocol: as §1, §2

E. cloacae ATCC 13047 = experiment: microbe, parasite or virus in culture
Protocol: as §1, §2

P. aeruginosa ATCC 27853 = experiment: microbe, parasite or virus in culture
Protocol: as §1, §2

E. faecium ATCC 49224 = experiment: microbe, parasite or virus in culture
Protocol: as §1, §2

K. pneumoniae ATCC 13883 = experiment: microbe, parasite or virus in culture
Protocol: as §1, §2

[3] = system: Batrachochytrium dendrobatidis Bd-GPL strain JEL404; conditions: slope of growth, positive = inhibition, negative = no inhibition
Protocol: Bd-peptide challenge assays were conducted with the crude peptides extracted from the salamander skin secretions and with the 20 synthesized peptides. We followed methods by Pereria et al.[49] to conduct assays with the crude peptides using Bd-GPL strain JEL404 at 1 × 10^6 zoospores/mL. Briefly, skin peptide samples were pooled together based on species-site-injection (Table 1). Skin peptides samples were serially diluted 2-fold in MilliQ (Ultrapure Type 1) water and assayed at a concentration of 2.35–75 μg/mL based on starting peptide concentration available. For synthesized peptides, we conducted assays from 15.6 to 500 μg/ml. In both assays, we quantified percent inhibition of each well using slope of growth[90] in which positive values indicate inhibition and negative values indicate no inhibition.

KGPRPPGFSPFR [PrMb-Eb7]
Suggest solvent (solubility) [1]: 1.0mg peptide soluble in 1.0ml H2O
Bacterial MIC (K. pneumoniae 4640; K. pneumoniae 4640, Week 1 (12/6/2023)): >128.000 mg/L
Bacterial MIC (A. baumannii 5075): >128.000 mg/L
Bacterial MIC (P. aeruginosa PA01 (Si); P. aeruginosa PA01 (Si), not typical ESKAPEE strain, Week 1 (12/6/2023)): >128.000 mg/L
Bacterial MIC (A. baumannii ATCC 19606; A. baumannii 19606, Week 1 (12/6/2023)): >128.000 mg/L
Bacterial MIC (S. aureus ATCC 43300): >128.000 mg/L
Bacterial MIC [2]: >128.000 mg/L
Bacterial MIC (A. baumannii ATCC 17978; A. baumannii 17978, Week 1 (12/6/2023)): >128.000 mg/L
Bacterial MIC (E. cloacae ATCC 35549; E. cloacae 35549, Week 1 (12/6/2023)): >128.000 mg/L
Bacterial MIC (E. coli ATCC 35218): >128.000 mg/L
Bacterial MIC (P. aeruginosa MRSN 5519; P. aeruginosa 5519, Week 1 (12/6/2023)): >128.000 mg/L
Bacterial MIC (S. aureus ATCC 25923; S. aureus 25923, Week 1 (12/6/2023)): >128.000 mg/L
Bacterial MIC (E. coli ATCC 43888; E. coli 43888, Week 1 (12/6/2023)): >128.000 mg/L
Bacterial MIC (E. faecium ATCC 19434; E. faecium 19434, Week 1 (12/6/2023)): >128.000 mg/L
Bacterial MIC (E. cloacae ATCC 13047; E. cloacae 13047, Week 1 (12/6/2023)): >128.000 mg/L
Bacterial MIC (P. aeruginosa ATCC 27853; P. aeruginosa 27853, Week 1 (12/6/2023)): >128.000 mg/L
Bacterial MIC (E. faecium ATCC 49224; E. faecium 49224, Week 1 (12/6/2023)): >128.000 mg/L
Bacterial MIC (K. pneumoniae ATCC 13883; K. pneumoniae 13883, Week 1 (12/6/2023)): >128.000 mg/L
Bd inhibition score (percent inhibition), mean ([3]; synthesized peptide 15.625 μg/mL): -125.322%
Bd inhibition score (percent inhibition), mean ([3]; synthesized peptide 31.25 μg/mL): -116.924%
Bd inhibition score (percent inhibition), mean ([3]; synthesized peptide 62.5 μg/mL): -107.962%
Bd inhibition score (percent inhibition), mean ([3]; synthesized peptide 125 μg/mL): -145.651%
Bd inhibition score (percent inhibition), mean ([3]; synthesized peptide 250 μg/mL): -143.314%
Bd inhibition score (percent inhibition), mean ([3]; synthesized peptide 500 μg/mL): -136.81%

LHTKRVQNKKKNGNRRQTIGKKCTAGFICKKEYLKLNPGIYSVIHD (cysteines drawn unpaired) [Tr-Eb1]
Suggest solvent (solubility) [1]: 1.0mg peptide soluble in 1.0ml DMSO
Bacterial MIC (K. pneumoniae 4640; 4640, 20 h): >128.000 mg/L
Bacterial MIC (A. baumannii 5075): >128.000 mg/L
Bacterial MIC (P. aeruginosa PA01 (Si); Si): >128.000 mg/L
Bacterial MIC (A. baumannii ATCC 19606; ATCC 19606, 20 h): >128.000 mg/L
Bacterial MIC (S. aureus ATCC 43300): >128.000 mg/L
Bacterial MIC [2]: >128.000 mg/L
Bacterial MIC (A. baumannii ATCC 17978; ATCC 17978, 20 h): >128.000 mg/L
Bacterial MIC (E. cloacae ATCC 35549; ATCC 35549, 20 h): >128.000 mg/L
Bacterial MIC (E. coli ATCC 35218): >128.000 mg/L
Bacterial MIC (P. aeruginosa MRSN 5519; MRSN 5519, 20 h): >128.000 mg/L
Bacterial MIC (S. aureus ATCC 25923; ATCC 25923, 20 h): >128.000 mg/L
Bacterial MIC (E. coli ATCC 43888; ATCC 43888, 20 h): >128.000 mg/L
Bacterial MIC (E. faecium ATCC 19434; ATCC 19434, 20 h): >128.000 mg/L
Bacterial MIC (E. cloacae ATCC 13047; ATCC 13047, 20 h): >128.000 mg/L
Bacterial MIC (P. aeruginosa ATCC 27853; ATCC 27853, 20 h): >128.000 mg/L
Bacterial MIC (E. faecium ATCC 49224; ATCC 49224, 20 h): >128.000 mg/L
Bacterial MIC (K. pneumoniae ATCC 13883; ATCC 13883, 20 h): >128.000 mg/L

IRRPPGFSPFR [PrAd-Eb8]
Suggest solvent (solubility) [1]: 1.0mg peptide soluble in 1.0ml H2O
Bacterial MIC (K. pneumoniae 4640; 4640, 20 h): >128.000 mg/L
Bacterial MIC (A. baumannii 5075): >128.000 mg/L
Bacterial MIC (P. aeruginosa PA01 (Si); Si): >128.000 mg/L
Bacterial MIC (A. baumannii ATCC 19606; ATCC 19606, 20 h): >128.000 mg/L
Bacterial MIC (S. aureus ATCC 43300): >128.000 mg/L
Bacterial MIC [2]: >128.000 mg/L
Bacterial MIC (A. baumannii ATCC 17978; ATCC 17978, 20 h): >128.000 mg/L
Bacterial MIC (E. cloacae ATCC 35549; ATCC 35549, 20 h): >128.000 mg/L
Bacterial MIC (E. coli ATCC 35218): >128.000 mg/L
Bacterial MIC (P. aeruginosa MRSN 5519; MRSN 5519, 20 h): >128.000 mg/L
Bacterial MIC (S. aureus ATCC 25923; ATCC 25923, 20 h): >128.000 mg/L
Bacterial MIC (E. coli ATCC 43888; ATCC 43888, 20 h): >128.000 mg/L
Bacterial MIC (E. faecium ATCC 19434; ATCC 19434, 20 h): >128.000 mg/L
Bacterial MIC (E. cloacae ATCC 13047; ATCC 13047, 20 h): >128.000 mg/L
Bacterial MIC (P. aeruginosa ATCC 27853; ATCC 27853, 20 h): >128.000 mg/L
Bacterial MIC (E. faecium ATCC 49224; ATCC 49224, 20 h): >128.000 mg/L
Bacterial MIC (K. pneumoniae ATCC 13883; ATCC 13883, 20 h): >128.000 mg/L

CC[C@H](C)[C@H](NC(=O)[C@H](CO)NC(=O)[C@H](CO)NC(=O)[C@H](Cc1ccccc1)NC(=O)[C@H](CS)NC(=O)CNC(=O)[C@@H]1CCCN1C(=O)[C@H](CCCNC(=N)N)NC(=O)[C@H](CCCNC(=N)N)NC(=O)CNC(=O)[C@H](CS)NC(=O)[C@H](CCCNC(=N)N)NC(=O)[C@H](CCCNC(=N)N)NC(=O)[C@@H]1CCCN1C(=O)[C@H](C)NC(=O)CNC(=O)[C@H](CCCNC(=N)N)NC(=O)[C@@H](NC(=O)[C@H](CC(C)C)NC(=O)[C@H](CCCNC(=N)N)NC(=O)[C@@H](NC(=O)CNC(=O)[C@H](CCCNC(=N)N)NC(=O)[C@H](CCCCN)NC(=O)[C@@H](NC(=O)[C@H](Cc1c[nH]cn1)NC(=O)[C@@H](NC(=O)[C@@H](N)CCC(=O)O)[C@@H](C)CC)[C@@H](C)O)[C@@H](C)O)C(C)C)C(=O)NCC(=O)N[C@@H](CCCCN)C(=O)N[C@H](C(=O)N[C@@H](CCC(=O)O)C(=O)O)C(C)C [TrPr-Eb2] (H-EIHTKRGTRLVRGAPRRCGRRPGCFSSIGKVE-OH; N-terminus and C-terminus assumed)
Suggest solvent (solubility) [1]: 1.0mg peptide soluble in 1.0ml H2O
Bacterial MIC (K. pneumoniae 4640; 4640, 20 h): >128.000 mg/L
Bacterial MIC (A. baumannii 5075): >128.000 mg/L
Bacterial MIC (P. aeruginosa PA01 (Si); Si): >128.000 mg/L
Bacterial MIC (A. baumannii ATCC 19606; ATCC 19606, 20 h): >128.000 mg/L
Bacterial MIC (S. aureus ATCC 43300): >128.000 mg/L
Bacterial MIC [2]: >128.000 mg/L
Bacterial MIC (A. baumannii ATCC 17978; ATCC 17978, 20 h): >128.000 mg/L
Bacterial MIC (E. cloacae ATCC 35549; ATCC 35549, 20 h): >128.000 mg/L
Bacterial MIC (E. coli ATCC 35218): >128.000 mg/L
Bacterial MIC (P. aeruginosa MRSN 5519; MRSN 5519, 20 h): >128.000 mg/L
Bacterial MIC (S. aureus ATCC 25923; ATCC 25923, 20 h): >128.000 mg/L
Bacterial MIC (E. coli ATCC 43888; ATCC 43888, 20 h): >128.000 mg/L
Bacterial MIC (E. faecium ATCC 19434; ATCC 19434, 20 h): >128.000 mg/L
Bacterial MIC (E. cloacae ATCC 13047; ATCC 13047, 20 h): >128.000 mg/L
Bacterial MIC (P. aeruginosa ATCC 27853; ATCC 27853, 20 h): >128.000 mg/L
Bacterial MIC (E. faecium ATCC 49224; ATCC 49224, 20 h): >128.000 mg/L
Bacterial MIC (K. pneumoniae ATCC 13883; ATCC 13883, 20 h): >128.000 mg/L
